In one experiment the test system is melanoma xenografts. The conditions noted are these: oral 10-30 mg/kg daily for 3 wk or 10 mg/kg injected in the tumor; cited from earlier work.
In experiment [1] the test system is HL-60 cells. The experiment is described as follows: Viable cell count of leukemic cells in suspension culture (Trypan blue). Format: cell-based, human. The note with it: read-out: concentration required for 50% inhibition of HL-60 cells; PPARγ ligands compared to CDDO. How it is done:
Suspension culture of leukemic cells. Leukemic cell lines were cultured at a density of 3.0×10^5 cells/mL, and AML mononuclear cells at 5×10^5 cells/mL in the presence or absence of indicated concentrations of CDDO-Me. Appropriate amounts of DMSO (final concentration<0.05%) was included as a control. For cytotoxicity studies, 1 μM ara-C was added to the cultures.
CDDO. […] The percentage of proliferating cells were analyzed by FCM.
CDDO-Me. […] Mechanism of growth inhibition was analyzed on cell cycle and apoptosis in HL-60 cells.

The test system of experiment [2] is HL-60 cells. The experiment is described as follows: Differentiation by CD11b/CD14 flow cytometry. Format: cell-based, human. The note with it: 7 days, concentration 1 (column head M). How it is done: Immunophenotyping. The PE-conjugated anti-CD11b, FITC-conjugated anti-CD14 monoclonal antibody (mAb) (Becton Dickinson) and PE-conjugated anti-CD95 mAb (PharMingen) were used at a 1/10 dilution.
Enhancement in cellular differentiation using combinations of CDDO with ATRA were tested. […] Cell differentiation was analyzed by flow cytometry (CD14/CD11b staining). […] These experiments were repeated. […]
Finally, the inventors examined if CDDO-Me combined with ATRA would enhance differentiation. […] […] Next, combined treatment with CDDO-Me and RXR-specific ligand were tested for potentiation of anti-leukemic effects.
(Flow cytometry measures light scatter and fluorescence of single cells or particles in a stream.)

The next experiment concerns D9 cells, vector control. As to the kind of experiment: Annexin V / cell number in D9 vector control cells. The experiment is classed as cell-based. The note with it: 3 μM (CDDO: 5 hrs). How it is done: (§1) Annexin V staining. Cells were washed in phosphate-buffered saline (PBS) and resuspended in 100 μl of binding buffer containing Annexin V (Roche Diagnostic Corporation, Indianapolis, Ind.). Cells were analyzed by flow cytometry after the addition of propidium iodide (PI). Annexin V binds to those cells that express phosphatidylserine on the outer layer of the cell membrane, and PI stains the cellular DNA of those cells with a compromised cell membrane. This allows for live cells (unstained with either fluorochrome) to be discriminated from apoptotic cells (stained only with annexin V) and necrotic cells (stained with both annexin and PI).
(§2) To characterize the correlation between PPARγ and caspase activation, caspase-3 levels in D9 cells transfected with wt-PPARγ were analyzed. Six different single cell-derived clones were treated with 3 μM CDDO or vehicle controls for 5 hrs. Caspase-3 cleavage was analyzed by Western blot. A decrease in pro-caspase-3 with appearance of the cleaved product was readily observed in all clones. The degree of cleavage was higher in PPARγ-transfected than in vector control cells that express endogenous PPARγ. […] These changes correlated with plasma membrane changes: vector control=47.0% annexin V-positive cells; wt-PPARγ-transfected cells=73.3±1.1% annexin V (+), n=6. […] PPARγ-transfected cells were also more sensitive to PPARγ-ligand 15d-PGJ2 (41.00% vs 16.0% annexin (+) cells at 3 μM).
To characterize the correlation between PPARγ and caspase activation, caspase-3 levels in D9 cells transfected with wt-PPARγ were analyzed. Six different single cell-derived clones were treated with 3 μM CDDO or vehicle controls for 5 hrs. Caspase-3 cleavage was analyzed by Western blot. A decrease in pro-caspase-3 with appearance of the cleaved product was readily observed in all clones. The degree of cleavage was higher in PPARγ-transfected than in vector control cells that express endogenous PPARγ. […] These changes correlated with plasma membrane changes: vector control=47.0% annexin V-positive cells; wt-PPARγ-transfected cells=73.3±1.1% annexin V (+), n=6. […]

The subject of experiment [3] is wt-PPARγ-transfected D9 cells. The experiment is described as follows: Annexin V / cell number in wt-PPARγ-transfected D9 cells. The experiment is classed as cell-based. The conditions noted are these: 3 μM (CDDO: 5 hrs, n=6). As to the method:
as §1, §2
as §2, with “(41.0%” for “(41.00%”
The sensitivity of leukemic cells that overexpress PPARγ to CDDO-induced killing was tested. Vector control (pcDNA) or wt-PPARγ-transfected D9 cells (2 different clones) were treated 0.2 μM of CDDO for 48 hrs. Cell viability was assessed by cell count after Trypan blue exclusion, and apoptosis determined by PS/annexin V/Propidium Iodide (PI) flow cytometry. Leukemic cells transfected with PPARγ expressed 2.8-3.7-fold higher amounts of protein compared with vector controls. […] Importantly, CDDO increased PPARγ expression in both, vector control and transfected cells. […]

The next experiment deals with primary AML samples. The experiment is described as follows: Annexin V staining of primary AML samples exposed to PPARγ ligands. The note with it: 72 hrs; 15d-PGJ2 5 μM; BRL49653, L-805645, GW347845X 25 μM. The experiment is classed as cell-based, human. As to the method: as §1
The subject of a further experiment is leukemic cell lines. As to the kind of experiment: Proliferation of leukemic cell lines (cell count and 3H incorporation). The experiment is classed as cell-based. The note with it: read-out: IC50, proliferation of leukemic cells.
For experiment [4], the system named is HL-60 cells. The conditions noted are these: 15d-PGJ2 at 3 μM, BRL49653 at 5 μM (Tontonoz et al., 1998); cited from earlier work.
For experiment [5], the system named is HL-60 cells. The note with it: 15d-PGJ2 at 3 μM, BRL49653 at 5 μM (Tontonoz et al., 1998); cited from earlier work. The source holds these as a separate data set.
The test system of experiment [6] is HL-60 cells. The experiment is described as follows: Differentiation by CD11b/CD14 flow cytometry. The experiment is classed as cell-based, human. The conditions noted are these: 7 days.

As for `O=C(O)c1ccc2cc(-c3ccc(O)c(C45CC6CC(CC(C6)C4)C5)c3)ccc2c1` [CD437], the “growth of melanoma xenografts in vivo” value in the experiment on melanoma xenografts was “caused growth inhibition of melanoma xenografts”.

Regarding `CCCCC/C=C/C=C1/C(=O)C=C[C@@H]1C/C=C\CCCC(=O)O` [15d-PGJ2, 15-deoxyΔ^12,14PGJ2], the IC50 is 5 µM in the experiment with HL-60 cells [1] and 5 to 10 µM in the experiment with leukemic cell lines. The CD11b % in the experiment on HL-60 cells [2] came out at 34.1%; in the experiment on HL-60 cells [6] (10 μM (15d-PGJ2 column head prints M)), 88.9%; in the experiment on HL-60 cells [6] (concentration 3 (column head M)), 49.4%; in the experiment on HL-60 cells [6] (concentration 5 (column head M)), 83.9%. In the experiment on D9 cells, vector control, the “annexin V-positive cells” value was 16.0%. Moreover, in experiment [3], the “annexin V (+) cells” value was determined as 41.0%. Also, in the experiment on primary AML samples, the annexin-V-positive cells was 27.7%. Further, the “killing of HL-60 cells” value in the experiment on HL-60 cells [4] is on record as “no killing”. In addition, in the experiment with HL-60 cells [5], the “monocytic differentiation of HL-60 cells” value is “induce monocytic differentiation”.

The values above are taken from US7795305B2, “CDDO-compounds and combination therapies thereof” (Board of Regents, The University of Texas System, priority 2000, dated 2010).
